Source: patent US20230149508A1, “COMPOSITIONS AND METHODS FOR TREATING COMPLICATIONS OF VIRAL INFECTIONS AND OTHER RESPIRATORY DISORDERS” (priority 2020, published 2023)
“Also recorded” adds a separate entry of the source. Peptide text beside a SMILES is read from it. * marks the point of attachment. Biotin = O=C1N[C@H]2[C@H](CS[C@H]2CCCCC(=O)*)N1; Ahx = NCCCCCC(=O)O

Key:
[1] = tested on: C57BL/6 mice intranasally challenged with a lethal dose of lipopolysaccharide (LPS); assay: Lethal LPS-induced lung injury (ARDS) mouse model, survival; format: in vivo; conditions: p<0.01 vs LPS, n=10/group
Protocol: C57BL/6 mice were pretreated with either 1000 uM aCT1, 1000 uM scrambled aCT1, or vehicle control prior to inoculation with a lethal dose (35 mg/kg/mouse) of LPS. A further group was treated with aCT1 6 hrs post inoculation of LPS. n=10/group (p<0.01 LPS vs LPS pre-aCT1, p<0.01 LPS vs LPS post aCT1).
Studies were undertaken to assess whether delivery of aCT1 to the respiratory tract in animal models of ARDS would reduce epithelial and endothelial breakdown, thereby preserving the air-liquid barrier while preventing fluid accumulation and reducing immune cell infiltration, resulting in the amelioration of ARDS pathology and preserving lung function to improve survival. Using a well characterized mouse model of ARDS, we investigated whether aCT1 applied directly to the lungs could inhibit severe endotoxin induced lung injury. C57BL/6 mice were intranasally challenged with a lethal dose of lipopolysaccharide (LPS) and were treated with aCT1 immediately prior to LPS administration, or 6 h post LPS exposure (FIG. 2).

[2] = tested on: normal human bronchial epithelial cells (NHBE); assay: Trans-epithelial resistance (TER) of NHBE monolayers after H2O2 exposure; format: cell-based; conditions: aCT1 pre-treatment, exposure to 100 mM H2O2; n=3
Protocol: (n=3, compared to H2O2 *:p<0.05, **:p<0.01, ***:p<0.0001)
(§1) To determine if aCT1 treatment preserves junctional integrity in human lung cells, human bronchial epithelial cells (NHBEs) were grown as confluent monolayers on Transwell inserts and trans-epithelial resistance (TER) recorded. TER readings measure electrical resistance across a cell monolayer and provide a quantitative metric of intercellular junction integrity.

[3] = tested on: Human lung microvascular endothelial cells (HLMEC); assay: TER of HLMEC after LPS exposure; format: cell-based; conditions: n=3, p<0.0001 vs LPS
Protocol: Human lung microvascular endothelial cells (HLMEC) were exposed to 10 μg LPS. Cells were treated with aCT1 prior to exposure or 24 hrs post LPS insult, scrambled control, or sham control. […] (n=3, compared to LPS ***:p<0.0001).
as §1

[4] = Intravenous (bolus) toxicity of aCT1 in rats; format: in vivo, rat; conditions: rat, in vivo
Protocol: (§2) Clinical signs were only observed at aCT1 administration levels that are well above the therapeutic range of efficacy, following intravenous administration of aCT1 at ≥10 mg/kg (Maximum Tolerated Dose). The results of these studies uniformly support aCT1 tolerability when delivered locally and systemically via various routes.

rats = assay: Intravenous (bolus) toxicity of aCT1 in rats; format: in vivo, rat; conditions: intravenous bolus
Protocol: as §2

[5] = Source text: (§3) Clinical trials have been undertaken to assess safety of topical delivery of aCT1.
human subjects [6] = conditions: in vivo
Source text: as §3

human subjects [7] = conditions: local (topical) delivery, clinical trials; cited from earlier work

Which “Survival / LPS-induced mortality” value ([1]; aCT1 treatment 6 hrs post LPS inoculation (35 mg/kg/mouse)) does the source give for `CC[C@H](C)[C@H](NC(=O)[C@H](CCC(=O)O)NC(=O)[C@H](CC(C)C)NC(=O)[C@H](CC(=O)O)NC(=O)[C@H](CC(=O)O)NC(=O)[C@@H]1CCCN1C(=O)[C@H](CCCNC(=N)N)NC(=O)[C@@H]1CCCN1C(=O)[C@H](CCCNC(=N)N)NC(=O)[C@H](CCCCN)NC(=O)[C@H](CCCCN)NC(=O)[C@H](Cc1c[nH]c2ccccc12)NC(=O)[C@@H]1CCCN1C(=O)[C@H](CCCCN)NC(=O)[C@H](CCCNC(=N)N)NC(=O)[C@H](CCCNC(=N)N)NC(=O)[C@H](CC(N)=O)NC(=O)[C@@H]1CCCN1C(=O)[C@H](Cc1ccccc1)NC(=O)[C@H](Cc1c[nH]c2ccccc12)NC(=O)[C@@H](NC(=O)[C@H](CCCCN)NC(=O)[C@@H]1CCCN1C(=O)[C@H](CCC(N)=O)NC(=O)[C@H](CCCNC(=N)N)NC(=O)CCCCCNC(=O)CCCC[C@@H]1SC[C@@H]2NC(=O)N[C@@H]21)[C@@H](C)CC)C(=O)O` [aCT1] ({Biotin-Ahx}-RQPKIWFPNRRKPWKKRPRPDDLEI-OH; N-terminus and C-terminus assumed) here?
Its value is “significant protection against LPS-induced mortality; also recorded: significantly improved survival”.

What about the “Survival / LPS-induced mortality” value ([1]; intranasal 1000 uM aCT1 pre-treatment prior to lethal LPS (35 mg/kg/mouse)) of the same compound?
The value was “significant protection against LPS-induced mortality; also recorded: significantly improved survival”.

What about the “TER (epithelial barrier integrity)” value [2] of the same compound?
Its value is “significantly increased TER readings; also recorded: stabilized intercellular junctions”.

And the “TER (endothelial barrier integrity)” value ([3]; aCT1 pre-treatment prior to 10 μg LPS)?
Its value is “significantly improved endothelial TER readings; also recorded: preserved barrier integrity”.

And the “TER (endothelial barrier integrity)” value ([3]; aCT1 treatment 24 hrs post LPS insult (10 μg LPS))?
The value was “significantly improved endothelial TER readings; also recorded: preserved barrier integrity”.

What about the MTD ([4]; intravenous administration, read-out: Dose at which clinical signs were observed (Maximum Tolerated Dose)) of the same compound?
The MTD was at least 10 mg/kg.

What about the NOAEL ([4]; intravenous bolus, read-out: no-observable-adverse-effect level (NOAEL)) of the same compound?
The NOAEL was 5 mg/kg.

And the Tolerability (rats)?
Its Tolerability is “well tolerated”.

And the “Immunogenicity (anti-aCT1 antibodies)” value ([5]; any preclinical study or clinical trial)?
The value was “not immunogenic”.

And the half-life ([5]; human)?
The half-life was 15 to 20 min.

And the “Drug related adverse events” value (human subjects [6])?
The value was “no drug related adverse events”.

And the “Systemic exposure (pharmacokinetic studies in clinical trials)” value (human subjects [6])?
Its value is “no systemic exposure”.

What about the “Efficacy and safety in acute and chronic skin injuries” value (human subjects [7]) of the same compound?
The value was “demonstrated the efficacy and safety”.
